Results: patent US10357493B2, “Metalloenzyme inhibitor compounds” (Selenity Therapeutics (Bermuda), Ltd., priority 2017, dated 2019)
Blank lines part the entries; values can stand above or below the molecule they belong to.

Columns and labels:
HDAC1 = HDAC1 (Homo sapiens (Human), UniProt Q13547); experiment: HDAC1 enzymatic assay; assay type: biochemical; conditions: read-out: Human HDAC1 IC50
In short: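 Compound inhibition of human HDAC1 (0.5 ng enzyme, 10 uM substrate) was assessed by fluorescence after developer treatment, excitation 360 nm and emission 460 nm. Percent activity was normalized to no-compound (100%) and no-enzyme (0%) controls, plotted against concentration, and fitted to a sigmoidal dose-response curve in Graphpad Prism to obtain IC50 at half-maximal activity.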

HDAC6 = HDAC6 (Homo sapiens (Human), UniProt Q9UBN7); experiment: HDAC6 enzymatic assay; assay type: biochemical; conditions: read-out: Human HDAC6 IC50
Sequence of HDAC6 (Q9UBN7 whole entry): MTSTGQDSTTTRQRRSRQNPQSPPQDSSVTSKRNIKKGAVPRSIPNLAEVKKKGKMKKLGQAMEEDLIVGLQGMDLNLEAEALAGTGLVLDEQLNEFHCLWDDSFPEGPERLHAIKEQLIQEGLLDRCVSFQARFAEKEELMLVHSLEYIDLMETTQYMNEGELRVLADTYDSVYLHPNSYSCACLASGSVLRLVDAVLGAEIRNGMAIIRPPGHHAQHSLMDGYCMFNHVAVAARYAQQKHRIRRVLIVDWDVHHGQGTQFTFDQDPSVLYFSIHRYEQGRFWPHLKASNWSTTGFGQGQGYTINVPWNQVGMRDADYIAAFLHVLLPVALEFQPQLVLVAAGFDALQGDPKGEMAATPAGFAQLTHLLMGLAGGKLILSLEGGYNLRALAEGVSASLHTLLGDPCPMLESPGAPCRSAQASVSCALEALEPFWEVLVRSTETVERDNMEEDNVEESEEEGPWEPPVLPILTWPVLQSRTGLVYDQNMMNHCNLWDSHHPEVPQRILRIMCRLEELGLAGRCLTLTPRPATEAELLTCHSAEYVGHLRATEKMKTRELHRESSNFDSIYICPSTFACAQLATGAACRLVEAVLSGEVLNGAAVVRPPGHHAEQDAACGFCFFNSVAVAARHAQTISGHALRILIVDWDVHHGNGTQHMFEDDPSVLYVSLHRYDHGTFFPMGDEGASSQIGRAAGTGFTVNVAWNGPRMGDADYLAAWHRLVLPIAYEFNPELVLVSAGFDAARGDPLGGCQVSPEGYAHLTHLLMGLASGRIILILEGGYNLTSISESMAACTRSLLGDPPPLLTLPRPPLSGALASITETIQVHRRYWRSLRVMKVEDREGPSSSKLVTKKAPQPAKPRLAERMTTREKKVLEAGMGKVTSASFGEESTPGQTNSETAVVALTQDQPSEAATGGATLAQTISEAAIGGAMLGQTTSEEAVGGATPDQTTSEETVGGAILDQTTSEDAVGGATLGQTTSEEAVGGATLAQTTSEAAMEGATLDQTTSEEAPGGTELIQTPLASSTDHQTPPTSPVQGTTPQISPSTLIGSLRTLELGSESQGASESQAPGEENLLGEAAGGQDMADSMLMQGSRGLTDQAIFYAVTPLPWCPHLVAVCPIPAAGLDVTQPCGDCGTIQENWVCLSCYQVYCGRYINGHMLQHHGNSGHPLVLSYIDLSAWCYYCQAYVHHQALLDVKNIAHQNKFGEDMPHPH
In short: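 Following a 17 hour room-temperature incubation of 2 ng HDAC6 with 10 uM substrate and compound, 50 μl developer was added for another 20 minutes, and fluorescence (excitation 360 nm, emission 460 nm) was recorded. Activity was normalized to no-compound (100%) and no-enzyme (0%) wells, and IC50 came from sigmoidal dose-response fitting in Graphpad Prism.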

[1] = Mouse Pharmacokinetics, oral single dose; assay type: in vivo, male Swiss Albino mice; conditions: male, Swiss Albino, plasma, 5 mg/kg, formulation by footnote: a 20% CremEL in H20, b 1% CMC in water, c 2% DMSO, 0.2% Tween80, 97.8% of 1% CMC
Procedure: Example 187: Mouse Pharmacokinetics
A dose of 5 mg/kg in an appropriate formulation was administered by oral gavage to fasted male Swiss Albino mice (n=3), and the plasma was collected at 0, 0.25, 0.5, 1, 2, 4, 8, and 24 h. Plasma levels were measured by HPLC/MS/MS methods and the pharmacokinetic parameters were determined for individual animals from plasma concentration-time data using noncompartmental model 200-202 in Phoenix WinNonlin 6.3.

Sequence of HDAC1 (Q13547 whole entry): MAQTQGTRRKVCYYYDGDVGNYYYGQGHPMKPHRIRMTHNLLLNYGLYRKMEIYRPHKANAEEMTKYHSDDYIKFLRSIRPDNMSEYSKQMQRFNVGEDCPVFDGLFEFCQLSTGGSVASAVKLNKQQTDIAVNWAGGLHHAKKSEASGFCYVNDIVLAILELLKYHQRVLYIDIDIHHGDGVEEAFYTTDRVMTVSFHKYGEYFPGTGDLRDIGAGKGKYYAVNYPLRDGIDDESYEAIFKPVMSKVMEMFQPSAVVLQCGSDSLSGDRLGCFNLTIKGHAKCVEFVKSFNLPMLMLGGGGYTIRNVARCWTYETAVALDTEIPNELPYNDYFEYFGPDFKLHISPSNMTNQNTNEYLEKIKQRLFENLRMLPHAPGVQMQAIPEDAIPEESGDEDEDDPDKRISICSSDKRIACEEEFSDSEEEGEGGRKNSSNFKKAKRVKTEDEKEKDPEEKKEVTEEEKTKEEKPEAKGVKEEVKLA

SMILES: CS(=O)(=O)NCC(Nc1ncc(-c2nnc(C(F)F)o2)cn1)c1ccc(F)cc1F (single isomer, unassigned) [103(+), N-(2-((5-(5-(difluoromethyl)-1,3,4-oxadiazol-2-yl)pyrimidin-2-yl)amino)-2-(2,4-difluorophenyl)ethyl)methanesulfonamide]
- IC50 (HDAC1): > 30 µM
- IC50 (HDAC6): 0.016 µM
- Cmax [1]: 2370 ng/mL
- half-life [1]: 3.2 h

SMILES: CN(CC(Nc1ncc(-c2nnc(C(F)F)o2)cn1)c1ccc(F)cc1)S(C)(=O)=O (single isomer, unassigned) [113(+), N-(2-((5-(5-(difluoromethyl)-1,3,4-oxadiazol-2-yl)pyrimidin-2-yl)amino)-2-(4-fluorophenyl)ethyl)-N-methylmethanesulfonamide]
- Cmax [1]: 1360 ng/mL
- half-life [1]: 3.5 h

SMILES: CS(=O)(=O)NCC(Nc1ncc(-c2nnc(C(F)F)o2)cn1)c1ccc(OC(F)F)cc1F (single isomer, unassigned) [116(+), N-(2-(4-(difluoromethoxy)-2-fluorophenyl)-2-((5-(5-(difluoromethyl)-1,3,4-oxadiazol-2-yl)pyrimidin-2-yl)amino)ethyl)methanesulfonamide]
- IC50 (HDAC1): > 30 µM
- IC50 (HDAC6): 0.017 µM
- Cmax [1]: 1010 ng/mL
- half-life [1]: 4.5 h

SMILES: CS(=O)(=O)NCC(Nc1ncc(-c2nnc(C(F)F)o2)cn1)c1ccc(F)c(F)c1 (single isomer, unassigned) [171(+), N-(2-((5-(5-(difluoromethyl)-1,3,4-oxadiazol-2-yl)pyrimidin-2-yl)amino)-2-(3,4-difluorophenyl)ethyl)methanesulfonamide]
- IC50 (HDAC1): > 30 µM
- IC50 (HDAC6): 0.23 µM
- Cmax [1]: 2590 ng/mL
- half-life [1]: 3.3 h

SMILES: CS(=O)(=O)NCC(Nc1ncc(-c2nnc(C(F)F)o2)cn1)c1ccc(Cl)cc1 (single isomer, unassigned) [173(+), N-(2-(4-chlorophenyl)-2-((5-(5-(difluoromethyl)-1,3,4-oxadiazol-2-yl)pyrimidin-2-yl)amino)ethyl)methanesulfonamide]
- IC50 (HDAC1): > 30 µM
- IC50 (HDAC6): 0.024 µM
- Cmax [1]: 2820 ng/mL
- half-life [1]: 5.6 h

SMILES: CS(=O)(=O)Nc1ccc(CC(Nc2ncc(-c3nnc(C(F)F)o3)cn2)c2ccc(F)cc2)cc1 (stereo not drawn) [Example 133, N-(4-(2-((5-(5-(difluoromethyl)-1,3,4-oxadiazol-2-yl)pyrimidin-2-yl)amino)-2-(4-fluorophenyl)ethyl)phenyl)methanesulfonamide]
- IC50 (HDAC1): > 30 µM
- IC50 (HDAC6): 0.33 µM

SMILES: O=C(CCCCCCNC(=O)c1cnc(N(c2ccccc2)c2ccccc2)nc1)NO [Ricolinostat, ricolinostat, reference compound]
- Cmax [1]: 47 ng/mL
- half-life [1]: 2.7 h

More lines, now with the values ahead:

- IC50 (HDAC1): > 30 µM
- IC50 (HDAC6): 0.035 µM
- Cmax [1]: 2530 ng/mL
- half-life [1]: 4.1 h
SMILES: O=S(=O)(NCC(Nc1ncc(-c2nnc(C(F)F)o2)cn1)c1ccc(F)cc1F)C1CC1 (stereo not drawn) [142(+), N-(2-((5-(5-(difluoromethyl)-1,3,4-oxadiazol-2-yl)pyrimidin-2-yl)amino)-2-(2,4-difluorophenyl)ethyl)cyclopropanesulfonamide]

- IC50 (HDAC1): > 30 µM
- IC50 (HDAC6): 0.023 µM
- Cmax [1]: 3390 ng/mL
- half-life [1]: 9.3 h
SMILES: O=S(=O)(NCC(Nc1ncc(-c2nnc(C(F)F)o2)cn1)c1ccc(OC(F)F)cc1F)C1CC1 (stereo not drawn) [150(+), N-(2-(4-(difluoromethoxy)-2-fluorophenyl)-2-((5-(5-(difluoromethyl)-1,3,4-oxadiazol-2-yl)pyrimidin-2-yl)amino)ethyl)cyclopropanesulfonamide]

- IC50 (HDAC1): > 30 µM
- IC50 (HDAC6): 0.027 µM
- Cmax [1]: 2120 ng/mL
- half-life [1]: 2.3 h
SMILES: CCS(=O)(=O)NCC(Nc1ncc(-c2nnc(C(F)F)o2)cn1)c1ccc(F)cc1 (stereo not drawn) [Example 108, N-(2-((5-(5-(difluoromethyl)-1,3,4-oxadiazol-2-yl)pyrimidin-2-yl)amino)-2-(4-fluorophenyl)ethyl)ethanesulfonamide]

- IC50 (HDAC1): > 30 µM
- IC50 (HDAC6): 0.037 µM
- Cmax [1]: 678 ng/mL
- half-life [1]: 3.4 h
SMILES: CC(C)S(=O)(=O)NCC(Nc1ncc(-c2nnc(C(F)F)o2)cn1)c1ccc(F)cc1 (stereo not drawn) [Example 109, N-(2-((5-(5-(difluoromethyl)-1,3,4-oxadiazol-2-yl)pyrimidin-2-yl)amino)-2-(4-fluorophenyl)ethyl)propane-2-sulfonamide]

- IC50 (HDAC1): > 30 µM
- IC50 (HDAC6): 0.13 µM
SMILES: CS(=O)(=O)Nc1cccc(C(Nc2ncc(-c3nnc(C(F)F)o3)cn2)c2ccc(F)cc2)c1 (stereo not drawn) [Example 128, N-(3-(((5-(5-(difluoromethyl)-1,3,4-oxadiazol-2-yl)pyrimidin-2-yl)amino)(4-fluorophenyl)methyl)phenyl)methanesulfonamide]

- IC50 (HDAC1): > 30 µM
- IC50 (HDAC6): 0.25 µM
SMILES: CS(=O)(=O)Nc1ccc(C(Nc2ncc(-c3nnc(C(F)F)o3)cn2)c2ccc(F)cc2)cc1 (stereo not drawn) [Example 129, N-(4-(((5-(5-(difluoromethyl)-1,3,4-oxadiazol-2-yl)pyrimidin-2-yl)amino)(4-fluorophenyl)methyl)phenyl)methanesulfonamide]

- IC50 (HDAC1): > 30 µM
- IC50 (HDAC6): 0.19 µM
SMILES: CS(=O)(=O)Nc1ccccc1C(Nc1ncc(-c2nnc(C(F)F)o2)cn1)c1ccc(F)cc1 (stereo not drawn) [Example 130, N-(2-(((5-(5-(difluoromethyl)-1,3,4-oxadiazol-2-yl)pyrimidin-2-yl)amino)(4-fluorophenyl)methyl)phenyl)methanesulfonamide]

- IC50 (HDAC1): > 30 µM
- IC50 (HDAC6): 0.058 µM
SMILES: CS(=O)(=O)Nc1ccccc1CC(Nc1ncc(-c2nnc(C(F)F)o2)cn1)c1ccc(F)cc1 (stereo not drawn) [Example 131, N-(2-(2-((5-(5-(difluoromethyl)-1,3,4-oxadiazol-2-yl)pyrimidin-2-yl)amino)-2-(4-fluorophenyl)ethyl)phenyl)methanesulfonamide]

- IC50 (HDAC1): > 30 µM
- IC50 (HDAC6): 0.083 µM
SMILES: CS(=O)(=O)Nc1cccc(CC(Nc2ncc(-c3nnc(C(F)F)o3)cn2)c2ccc(F)cc2)c1 (stereo not drawn) [Example 132, N-(3-(2-((5-(5-(difluoromethyl)-1,3,4-oxadiazol-2-yl)pyrimidin-2-yl)amino)-2-(4-fluorophenyl)ethyl)phenyl)methanesulfonamide]
